# Results as given in ChEMBL document CHEMBL3526121, “Pharmacokinetics, bioavailability, tissue distribution, excretion, and metabolite identification of methoxyflavones in Kaempferia parviflora extract in rats” (Drug Metab Dispos, 2012).
# Tests used:
# [1] = Drug excretion in Wistar rat urine at 750 mg/kg, po after 12 hrs by HPLC-UV analysis; format: ADME, organism-based; parameters: dose 750 mg/kg, route oral; conditions: in vivo
# [2] = Drug excretion in Wistar rat feces at 750 mg/kg, po after 12 hrs by HPLC-UV analysis; format: ADME, organism-based; parameters: dose 750 mg/kg, route oral; conditions: in vivo
# [3] = Drug metabolism in Wistar rat urine/feces treated with 750 mg/kg, po of 3,5,7,4'-tetramethoxyflavone by LC-MS and LC-MS/MS analysis; format: ADME, organism-based; parameters: dose 750 mg/kg, route oral; conditions: in vivo
# [4] = Drug metabolism in Wistar rat assessed as excretion of 3,5-dihydroxy-7-methoxy-2-(4-methoxyphenyl)-4H-chromen-4-one in urine/feces at 750 mg/kg, po by LC-MS and LC-MS/MS analysis; format: ADME, organism-based; parameters: dose 750 mg/kg, route oral; conditions: in vivo
# [5] = Drug metabolism in Wistar rat assessed as excretion of 3,5-dihydroxy-2-(4-hydroxyphenyl)-7-methoxy-4H-chromen-4-one in feces at 750 mg/kg, po by LC-MS and LC-MS/MS analysis; format: ADME, organism-based; parameters: dose 750 mg/kg, route oral; conditions: in vivo
# [6] = Drug metabolism in Wistar rat assessed as excretion of 7-methoxy-2-(4-methoxyphenyl)-4-oxo-4H-chromen-5-yl hydrogen sulfate in urine at 750 mg/kg, po by LC-MS and LC-MS/MS analysis; format: ADME, organism-based; parameters: dose 750 mg/kg, route oral; conditions: in vivo
# [7] = Drug metabolism in Wistar rat assessed as excretion of 5-hydroxy-2-(4-methoxyphenyl)-4-oxo-4H-chromen-7-yl hydrogen sulfate in urine at 750 mg/kg, po by LC-MS and LC-MS/MS analysis; format: ADME, organism-based; parameters: dose 750 mg/kg, route oral; conditions: in vivo
# [8] = Drug metabolism in Wistar rat assessed as excretion of 5-hydroxy-2-(4-hydroxyphenyl)-7-methoxy-4H-chromen-4-one in urine/feces at 750 mg/kg, po by LC-MS and LC-MS/MS analysis; format: ADME, organism-based; parameters: dose 750 mg/kg, route oral; conditions: in vivo
# [9] = Drug excretion in Wistar rat urine at 750 mg/kg, po after 24 to 72 hrs by HPLC-UV analysis; format: ADME, organism-based; parameters: dose 750 mg/kg, route oral; conditions: in vivo
# [10] = Drug excretion in Wistar rat feces at 750 mg/kg, po after 18 to 24 hrs by HPLC-UV analysis; format: ADME, organism-based; parameters: dose 750 mg/kg, route oral; conditions: in vivo
# [11] = AUC in Wistar rat at 250 mg/kg, po by HPLC analysis; format: ADME, organism-based; parameters: dose 250 mg/kg, route oral; conditions: plasma
# [12] = AUC in Wistar rat at 250 mg/kg, iv by HPLC analysis; format: ADME, organism-based; parameters: dose 250 mg/kg, route intravenous; conditions: plasma
# [13] = Half life in Wistar rat at 250 mg/kg, po by HPLC analysis; format: ADME, organism-based; parameters: dose 250 mg/kg, route oral; conditions: in vivo
# [14] = Half life in Wistar rat at 250 mg/kg, iv by HPLC analysis; format: ADME, organism-based; parameters: dose 250 mg/kg, route intravenous; conditions: Wistar, in vivo
# [15] = Elimination rate constant in Wistar rat at 250 mg/kg, po by HPLC analysis; format: ADME, organism-based; parameters: dose 250 mg/kg, route oral; conditions: in vivo, read-out: Ke (converted)
# [16] = Elimination rate constant in Wistar rat at 250 mg/kg, iv by HPLC analysis; format: ADME, organism-based; parameters: dose 250 mg/kg, route intravenous; conditions: Wistar, in vivo, read-out: Ke (converted)
# [17] = Clearance in Wistar rat at 250 mg/kg, po by HPLC analysis; format: ADME, organism-based; parameters: dose 250 mg/kg, route oral; conditions: in vivo
# [18] = Clearance in Wistar rat at 250 mg/kg, iv by HPLC analysis; format: ADME, organism-based; parameters: dose 250 mg/kg, route intravenous; conditions: in vivo
# [19] = Tmax in Wistar rat at 250 mg/kg, po by HPLC analysis; format: ADME, organism-based; parameters: dose 250 mg/kg, route oral; conditions: in vivo
# [20] = Cmax in Wistar rat at 250 mg/kg, po by HPLC analysis; format: ADME, organism-based; parameters: dose 250 mg/kg, route oral; conditions: in vivo
# Rattus norvegicus [21] = assay: Volume of distribution in Wistar rat at 250 mg/kg, po by HPLC analysis; format: ADME, organism-based; parameters: dose 250 mg/kg, route oral; conditions: in vivo
# Rattus norvegicus [22] = assay: Absorption rate constant in Wistar rat at 250 mg/kg, po by HPLC analysis; format: ADME, organism-based; parameters: dose 250 mg/kg, route oral; conditions: in vivo
# [23] = Oral bioavailability in Wistar rat at 250 mg/kg by HPLC analysis; format: ADME, organism-based; conditions: in vivo
# Liver = assay: AUC (0.083 to 4 hrs) in Wistar rat liver at 750 mg/kg, po by LC-MS/MS analysis; format: ADME, organism-based; parameters: time 0.083-4 hr, dose 750 mg/kg, route oral; conditions: in vivo
# Kidney = assay: AUC (0.083 to 4 hrs) in Wistar rat kidney at 750 mg/kg, po by LC-MS/MS analysis; format: ADME, organism-based; parameters: time 0.083-4 hr, dose 750 mg/kg, route oral; conditions: in vivo
# Lung = assay: AUC (0.083 to 4 hrs) in Wistar rat lung at 750 mg/kg, po by LC-MS/MS analysis; format: ADME, organism-based; parameters: time upper 4 hr, time lower 0.083 hr, dose 750 mg/kg, route oral; conditions: in vivo
# Brain = assay: AUC (0.083 to 4 hrs) in Wistar rat brain at 750 mg/kg, po by LC-MS/MS analysis; format: ADME, organism-based; parameters: time 0.083-4 hr, dose 750 mg/kg, route oral; conditions: in vivo
# [24] = Cmax in Wistar rat liver at 750 mg/kg, po by LC-MS/MS analysis; format: ADME, organism-based; parameters: dose 750 mg/kg, route oral
# [25] = Cmax in Wistar rat kidney at 750 mg/kg, po by LC-MS/MS analysis; format: ADME, organism-based; parameters: dose 750 mg/kg, route oral
# [26] = Cmax in Wistar rat lung at 750 mg/kg, po by LC-MS/MS analysis; format: ADME, organism-based; parameters: dose 750 mg/kg, route oral
# [27] = Cmax in Wistar rat brain at 750 mg/kg, po by LC-MS/MS analysis; format: ADME, organism-based; parameters: dose 750 mg/kg, route oral
# [28] = Cmax in Wistar rat testes at 750 mg/kg, po by LC-MS/MS analysis; format: ADME, organism-based, Testis; parameters: dose 750 mg/kg, route oral
# [29] = Tmax in Wistar rat liver at 750 mg/kg, po by LC-MS/MS analysis; format: ADME, organism-based; parameters: dose 750 mg/kg, route oral
# [30] = Tmax in Wistar rat kidney at 750 mg/kg, po by LC-MS/MS analysis; format: ADME, organism-based; parameters: dose 750 mg/kg, route oral
# [31] = Tmax in Wistar rat lung at 750 mg/kg, po by LC-MS/MS analysis; format: ADME, organism-based; parameters: dose 750 mg/kg, route oral
# [32] = Tmax in Wistar rat brain at 750 mg/kg, po by LC-MS/MS analysis; format: ADME, organism-based; parameters: dose 750 mg/kg, route oral
# [33] = Tmax in Wistar rat testes at 750 mg/kg, po by LC-MS/MS analysis; format: ADME, organism-based, Testis; parameters: dose 750 mg/kg, route oral
# [34] = Drug excretion in Wistar rat urine at 750 mg/kg, po after up to 72 hrs by HPLC-UV analysis; format: ADME, organism-based; parameters: dose 750 mg/kg, route oral; conditions: read-out: Drug excretion
# [35] = Drug excretion in Wistar rat feces at 750 mg/kg, po after up to 72 hrs by HPLC-UV analysis; format: ADME, organism-based; parameters: dose 750 mg/kg, route oral; conditions: faeces, read-out: Drug excretion
# [36] = AUC (0.083 to 4 hrs) in Wistar rat testes at 750 mg/kg, po by LC-MS/MS analysis; format: ADME, organism-based, Testis; parameters: time 0.083-4 hr, dose 750 mg/kg, route oral; conditions: in vivo
smiles,measurement,setting,value
COc1cc(O)c2c(=O)c(OC)c(-c3ccc(OC)c(OC)c3)oc2c1 [RETUSIN],Drug excretion,[1],Active
same,Drug excretion,[2],Active
COc1cc(O)c2c(=O)c(O)c(-c3ccc(O)cc3)oc2c1 [RHAMNOCITRIN],Drug metabolism,[3],metabolite_detected
COc1cc(O)c2c(=O)cc(-c3ccccc3)oc2c1 [TECHTOCHRYSIN],Drug excretion,[1],Active
same,Drug excretion,[2],Active
COc1ccc(-c2oc3cc(OC)cc(OC)c3c(=O)c2OC)cc1 [TETRAMETHYLKAEMPFEROL],Drug metabolism,[4],metabolite_detected
same,Drug metabolism,[5],metabolite_detected
COc1ccc(-c2cc(=O)c3c(OC)cc(OC)cc3o2)cc1 [TRIMETHYLAPIGENIN],Drug metabolism,[6],metabolite_detected
same,Drug metabolism,[7],metabolite_detected
same,Drug metabolism,[8],metabolite_detected
same,Drug excretion,[9],Active
same,Drug excretion,[10],Active
same,AUC,[11],6960 ng·h/mL
same,AUC,[12],276 µg·h/mL
same,half-life,[13],302 min
same,half-life,[14],251 min
same,k el,[15],4.17e-05 s⁻¹
same,k el,[16],8.89e-05 s⁻¹
same,CL/F,[17],5.62 mL/min
same,clearance,[18],0.105 mL/min
same,Tmax,[19],51 min
same,Cmax,[20],880 ng/mL
same,Vd,Rattus norvegicus [21],2385.1 mL
same,ka,Rattus norvegicus [22],8.53 h⁻¹
same,bioavailability,[23],1.75%
same,AUC,Liver,7.83 µg·h/g
same,AUC,Kidney,3.01 µg·h/g
same,AUC,Lung,1.88 µg·h/g
same,AUC,Brain,2.5 µg·h/g
same,Cmax,[24],3010 ng/g
same,Cmax,[25],1640 ng/g
same,Cmax,[26],1410 ng/g
same,Cmax,[27],1430 ng/g
same,Cmax,[28],1100 ng/g
same,Tmax,[29],2.64 h
same,Tmax,[30],3.43 h
same,Tmax,[31],1.76 h
same,Tmax,[32],3.43 h
same,Tmax,[33],3.14 h
same,Drug excretion,[1],Active
same,Drug excretion,[2],Active
same,dose excreted at 72 h,[34],1.77%
same,dose excreted at 72 h,[35],1.76%
same,AUC,[36],1.96 µg·h/g
